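Method: 48-hour compound exposure of cells in 96-well plates, five concentrations, linear interpolation of endpoints. GI50 is the concentration that inhibits growth by half. At the TGI there is no net growth.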
What was measured:
Experiment in all cases: growth of human tumour cells (NCI), 48 h
ACHN renal = test system: ACHN renal
SW-620 colon = test system: SW-620 colon
KM12 colon = test system: KM12 colon
MALME-3M melanoma = test system: MALME-3M melanoma
OVCAR-8 ovarian = test system: OVCAR-8 ovarian
SK-MEL-28 melanoma = test system: SK-MEL-28 melanoma
UACC-62 melanoma = test system: UACC-62 melanoma
CCRF-CEM leukemia = test system: CCRF-CEM leukemia
SK-MEL-5 melanoma = test system: SK-MEL-5 melanoma
BT-549 breast = test system: BT-549 breast
SNB-75 CNS = test system: SNB-75 CNS
PC-3 prostate = test system: PC-3 prostate
SN12C renal = test system: SN12C renal
UO-31 renal = test system: UO-31 renal
TK-10 renal = test system: TK-10 renal
NCI-H226 lung = test system: NCI-H226 lung
CAKI-1 renal = test system: CAKI-1 renal
SNB-19 CNS = test system: SNB-19 CNS
SF-539 CNS = test system: SF-539 CNS
A498 renal = test system: A498 renal
SR leukemia = test system: SR leukemia
NCI-H23 lung = test system: NCI-H23 lung
NCI-H460 lung = test system: NCI-H460 lung
MCF7 breast = test system: MCF7 breast
HCT-15 colon = test system: HCT-15 colon
NCI-H522 lung = test system: NCI-H522 lung
OVCAR-4 ovarian = test system: OVCAR-4 ovarian

`Cc1nc2sc(C(=O)Nc3cccc4ccccc34)c(N)c2cc1C(=O)c1ccccc1` was tested, and the GI50 (ACHN renal) was 2730 nM, the TGI (ACHN renal) was > 50000 nM and the GI50 (SW-620 colon) was 1710 nM. The TGI (SW-620 colon) was > 50000 nM, the GI50 (KM12 colon) was 1860 nM and the TGI (KM12 colon) was > 50000 nM. The GI50 (MALME-3M melanoma) was 3860 nM, the TGI (MALME-3M melanoma) was > 50000 nM and the GI50 (OVCAR-8 ovarian) was 2150 nM. The TGI (OVCAR-8 ovarian) was > 50000 nM, the GI50 (SK-MEL-28 melanoma) was 4950 nM and the TGI (SK-MEL-28 melanoma) was > 50000 nM. The GI50 (UACC-62 melanoma) was 2420 nM, the TGI (UACC-62 melanoma) was > 50000 nM and the GI50 (CCRF-CEM leukemia) was 1660 nM. For the same compound, the TGI (CCRF-CEM leukemia) was > 50000 nM, the GI50 (SK-MEL-5 melanoma) was 1920 nM and the TGI (SK-MEL-5 melanoma) was 12400 nM. The GI50 (BT-549 breast) was 1870 nM, the TGI (BT-549 breast) was > 50000 nM and the GI50 (SNB-75 CNS) was 1040 nM. The TGI (SNB-75 CNS) was > 50000 nM, the GI50 (PC-3 prostate) was 1780 nM and the TGI (PC-3 prostate) was > 50000 nM. For the same compound, the GI50 (SN12C renal) was 2980 nM, the TGI (SN12C renal) was > 50000 nM and the GI50 (UO-31 renal) was 2110 nM. The TGI (UO-31 renal) was > 50000 nM, the GI50 (TK-10 renal) was > 50000 nM and the TGI (TK-10 renal) was > 50000 nM. For the same compound, the GI50 (NCI-H226 lung) was 7710 nM, the TGI (NCI-H226 lung) was > 50000 nM and the GI50 (CAKI-1 renal) was 1620 nM. The TGI (CAKI-1 renal) was > 50000 nM, the GI50 (SNB-19 CNS) was 2410 nM and the TGI (SNB-19 CNS) was > 50000 nM. It also gave a GI50 (SF-539 CNS) of 1060 nM, a TGI (SF-539 CNS) of 2710 nM and a GI50 (A498 renal) of 150 nM. For the same compound, the TGI (A498 renal) was 1170 nM, the GI50 (SR leukemia) was 632 nM and the TGI (SR leukemia) was > 50000 nM. The GI50 (NCI-H23 lung) was 3550 nM, the TGI (NCI-H23 lung) was > 50000 nM and the GI50 (NCI-H460 lung) was 727 nM. For the same compound, the TGI (NCI-H460 lung) was 6320 nM, the GI50 (MCF7 breast) was 1530 nM and the TGI (MCF7 breast) was > 50000 nM. For the same compound, the GI50 (HCT-15 colon) was 1410 nM, the TGI (HCT-15 colon) was > 50000 nM and the GI50 (NCI-H522 lung) was 1520 nM. The TGI (NCI-H522 lung) was > 50000 nM, the GI50 (OVCAR-4 ovarian) was 3210 nM and the TGI (OVCAR-4 ovarian) was > 50000 nM.
